# Test results from patent US20080096967A1, “Formulations for Injection of Catecholic Butanes, Including Ndga Compounds, Into Animals” (priority 2005, published 2008).
# How the values were obtained:
# [1] = Solubility of M4N in water-insoluble lipids (visual inspection); type: physicochemical
# Description: A 10 mL solution of M4N at a concentration of about 50 mg/mL in sesame oil was made as follows. About 10 mL of sesame oil were added to a glass beaker containing a stir bar. The beaker was placed on a magnetic plate and the stir bar was set to stir at medium speed. About 500 mg of M4N were slowly added to the sesame oil in the center of the beaker with the aid of a spatula to prevent M4N from sticking to the beaker wall. The M4N/sesame oil mixture was stirred for about 2 hr or until all M4N had dissolved or was uniformly suspended without any clump being present. The M4N/sesame oil mixture was heated at about 60° C. for about 30 min. (or longer if a larger volume of solution was desired, for example, 1 hr at 60° C. for 500 mL of the M4N/sesame oil mixture), or longer as need to ensure complete dissolution of M4N. […] If crystals formed, the M4N/sesame oil solution could be heated again at 60° C. for about 1 hr, with stirring, on a hot magnetic plate until all M4N was dissolved back in solution. The final M4N/sesame oil solution was stored at room temperature and was kept protected from light.
# A 10 mL solution of M4N at a concentration of about 60 mg/mL in 85% sesame oil and 15% Tween® 20 was made as follows. About 8.5 mL of sesame oil were added to a glass beaker containing a stir bar. The beaker was placed on a magnetic plate and the stir bar was set to stir at medium speed. About 1.5 mL of Tween® 20 was slowly added to the center of the beaker. About 600 mg of M4N were slowly added to the sesame oil/Tween® 20 mixture in the center of the beaker with the aid of a spatula to prevent M4N from sticking to the beaker wall. The M4N/sesame oil/Tween® 20 mixture was stirred for about 2 hr or until all M4N had dissolved or was uniformly suspended without any clumps being present. The M4N/sesame oil/Tween® 20 mixture was heated at about 60° C. for about 30 min. (or longer if a larger volume of solution was desired, for example, 1 hr at 60° C. for 500 mL of the M4N/sesame oil/Tween® 20 mixture), or longer as need to ensure complete dissolution of M4N. […]
# [2] = 40 mg/mL M4N/PEG 300 stability: visual appearance; type: physicochemical
# Description: The stability of 40 mg/mL M4N dissolved in 100% PEG 300 was evaluated up to 24 hours incubation at 30° C., 45° C. and 60° C. A stock 40 mg/mL M4N in PEG 300 was prepared at 60° C., following the procedure set forth in Example 17. Subsequently, aliquots were removed and incubated at the appropriate temperature. Samples were rotated at 450 rpm during the entire course of incubation. Visual observations and RP-HPLC data were collected throughout. […] The formation of crystals coincided with a loss of soluble M4N (Table 30). The 40 mg/mL M4N/PEG 300 samples incubated at 45° C. and 60° C. were stable after 24 hours incubation as assessed by visual observations and RP-HPLC analysis (Tables 29 and 30).
smiles,measurement,setting,value
"COc1ccc(C[C@@H](C)[C@@H](C)Cc2ccc(OC)c(OC)c2)cc1OC [Formulation M4N, meso-1,4-bis(3,4-dimethoxyphenyl)-2,3-dimethylbutane]",stable at room temperature,"[1]; 89% sesame oil and 11% Tween® 20, M4N 29 mg/mL, dissolved at 60° C.",more than 7 days
same,Stability Time at Room Temperature,"[1]; Sesame Oil and Tween ® 20: 10% Oil emulsion in 90% saline, M4N 2.9 mg/mL",<3 days
same,stable at room temperature,"[1]; sesame oil, M4N 50 mg/mL",less than 1 day
same,visual observation,"[2]; 40 mg/mL M4N/PEG 300, 6 hours at 30° C.",tiny crystals were observed
same,stability by visual observations and RP-HPLC,"[2]; 40 mg/mL M4N/PEG 300, 24 hours at 45° C. and 60° C.",stable
